# Assays:
# interferon (α) (IFN-α) = assay: Cytokine induction in human cells: IFN-α secreted by PBMC into culture media (ELISA); type: cell-based; conditions: Table 11; human PBMC; median where tested in more than one experiment
# How it was run: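 IFN-α secreted by density-gradient-isolated PBMC (final 2×10^6 cells/mL) was quantified by ELISA after 18–24 h compound exposure at 37 °C, typically 30-0.014 μM in 3-fold steps with ≤1% DMSO. Readings corrected for background and reference-compound variability; lowest concentration above usually 20 pg/mL reported, plus maximal response (pg/mL).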
# [1] = tested on: tumor necrosis factor (α) (TNF-α); assay: Cytokine induction in human cells: TNF-α secreted by PBMC into culture media (ORIGEN M-Series immunoassay); type: cell-based; design: key to Maximal Response (pg/mL) TNF / Maximal Response TNF: If any negative values result from background subtraction, the reading is reported as “*”, and is noted as not reliably detectable; conditions: Table 11, human PBMC; for Minimum Effective Concentration TNF: median where tested in more than one experiment; for Maximal Response TNF: median, * = TNF below experimental background of 40 pg/mL
# How it was run: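 Secreted TNF-α (pg/mL) was quantified by ORIGEN M-Series immunoassay after 18 to 24 hours culture at 37° C of human PBMC (2×10^6 cells/mL final) with test compound (usually 30-0.014 μM, 3-fold series, DMSO ≤1%). Values were corrected for DMSO or experimental background and a reference-compound ratio, giving a minimum effective concentration.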
Compound,Maximal Response IFN (interferon (α) (IFN-α)) [pg/mL],Minimum Effective Concentration IFN (interferon (α) (IFN-α)) [µM],Minimum Effective Concentration TNF [1] [µM],Maximal Response TNF [1]
COCCc1nc2c(N)nc3ccccc3c2n1CCCNC(=O)NC(C)C [Analog 83],1289,0.12,1.11,1259 pg/mL
Cc1nc2c(N)nc3ccccc3c2n1CCCN [Analog 84],421,3.33,>30,*
CCOCc1nc2c(N)nc3ccccc3c2n1CCCN [Analog 85],1325,0.12,30,411 pg/mL
COCCc1nc2c(N)nc3ccccc3c2n1CCCN [Analog 86],3433,0.04,1.11,1674 pg/mL
Cc1nc2c(N)nc3ccccc3c2n1CCCNC(=O)N1CCOCC1 [Analog 87],4843,0.37,30,463 pg/mL
CCOCc1nc2c(N)nc3ccccc3c2n1CCCNC(=O)N1CCOCC1 [Analog 88],6670,0.12,1.11,1379 pg/mL
COCCc1nc2c(N)nc3ccccc3c2n1CCCNC(=O)N1CCOCC1 [Analog 89],5915,0.014,0.014,6169 pg/mL
CCc1nc2c(N)nc3ccccc3c2n1CC(C)(C)CNC(=O)Nc1ccccc1 [Analog 90],922,0.014,0.12,2098 pg/mL
CCOCc1nc2c(N)nc3ccccc3c2n1CC(C)(C)CNC(=O)Nc1ccccc1 [Analog 91],1133,0.014,0.04,3618 pg/mL
COCCc1nc2c(N)nc3ccccc3c2n1CC(C)(C)CNC(=O)Nc1ccccc1 [Analog 92],570,0.014,0.04,6449 pg/mL
CCOCc1nc2c(N)nc3ccccc3c2n1CC(C)(C)NC(=O)C1CCCCC1 [Analog 93],1052,0.37,0.37,12173 pg/mL
COCc1nc2c(N)nc3ccccc3c2n1CC(C)(C)CNC(=O)c1ccccc1 [Analog 94],2518,1.11,3.33,9721 pg/mL
COCOCc1nc2c(N)nc3ccccc3c2n1CC(C)(C)CNC(=O)c1ccccc1 [Analog 95],832,0.04,0.37,1820 pg/mL
COCCc1nc2c(N)nc3ccccc3c2n1CC(C)(C)CNC(=O)c1ccccc1 [Analog 96],2133,0.014,0.014,1812 pg/mL
CCCCNC(=O)NCCCn1c(COCC)nc2c(N)nc3ccccc3c21 [Analog 97],827,0.37,3.33,963 pg/mL
CCCCNC(=O)NCCCn1c(CCOC)nc2c(N)nc3ccccc3c21 [Analog 98],5915,0.014,0.04,6169 pg/mL
CCc1nc2c(N)nc3ccccc3c2n1CC(C)(C)CN [Analog 99],405,0.04,0.37,13846 pg/mL
COCCc1nc2c(N)nc3ccccc3c2n1CC(C)(C)CN [Analog 100],571,0.014,0.04,17626 pg/mL
Cc1nc2c(N)nc3ccccc3c2n1CCCNC(=O)c1ccccc1 [Analog 101],571,1.11,3.33,156 pg/mL
COCCc1nc2c(N)nc3ccccc3c2n1CCCNC(=O)c1ccccc1 [Analog 102],1504,0.014,1.11,3080 pg/mL
CCNC(=O)NCCn1c(CC)nc2c(N)nc3ccccc3c21 [Analog 103],1031,3.33,10,3250 pg/mL
CCNC(=O)NCCn1c(CCOC)nc2c(N)nc3ccccc3c21 [Analog 104],2587,0.014,0.12,7719 pg/mL
CCc1nc2c(N)nc3ccccc3c2n1CCNC(=O)CC(C)C [Analog 105],851,3.33,30,587 pg/mL
COCCc1nc2c(N)nc3ccccc3c2n1CCNC(=O)CC(C)C [Analog 106],1204,0.12,3.33,5694 pg/mL

# From patent publication US8846710B2, “Method of preferentially inducing the biosynthesis of interferon” (3M Innovative Properties Company, priority 2005, dated 2014)
